Laboratory results published in ChEMBL document CHEMBL1135708, “Synthesis of 1-(3,4-dihydroxy-5-nitrophenyl)-2-phenyl-ethanone and derivatives as potent and long-acting peripheral inhibitors of catechol-O-methyltransferase” (J Med Chem, 2002).

Assays:
[1] = target: T1, Catechol O-methyltransferase (Rattus norvegicus) (UniProt P22734); assay: Percent inhibition of Catechol O-methyltransferase activity in rat brain at dose of 30 mg/kg determined at 6 h after its administration; assay type: organism-based; set-up: dose 30 mg/kg
T1 sequence (whole entry): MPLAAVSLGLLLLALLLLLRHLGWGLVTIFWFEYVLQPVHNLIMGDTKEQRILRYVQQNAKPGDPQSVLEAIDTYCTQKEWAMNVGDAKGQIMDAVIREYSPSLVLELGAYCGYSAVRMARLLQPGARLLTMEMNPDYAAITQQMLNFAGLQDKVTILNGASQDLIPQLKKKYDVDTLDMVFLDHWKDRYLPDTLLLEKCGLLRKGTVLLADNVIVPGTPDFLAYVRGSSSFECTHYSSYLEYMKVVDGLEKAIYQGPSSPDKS

[2] = target: T1, Catechol O-methyltransferase (Rattus norvegicus); assay: Percent inhibition of Catechol O-methyltransferase activity in rat liver at dose of 30 mg/kg determined at 6 hr after its administration; assay type: organism-based; set-up: dose 30 mg/kg

O=C(Cc1ccc(Cl)cc1)c1cc(O)c(O)c([N+](=O)[O-])c1
inhibition [1]: 12% | inhibition [2]: 69%

CC(=O)Oc1cc(C(=O)C(Br)c2ccccc2)cc([N+](=O)[O-])c1OC(C)=O (stereo not given)
inhibition [1]: 20% | inhibition [2]: 48%

O=C(Cc1cccc2ccccc12)c1cc(O)c(O)c([N+](=O)[O-])c1
inhibition [1]: 10% | inhibition [2]: 70%

O=C(c1cc(O)c(O)c([N+](=O)[O-])c1)C(c1ccccc1)c1ccccc1
inhibition [1]: 7% | inhibition [2]: 13%

CC(=O)Oc1cc(C(=O)C(C)c2ccccc2)cc([N+](=O)[O-])c1OC(C)=O (stereo not given)
inhibition [1]: 44% | inhibition [2]: 42%

O=c1oc(-c2cc(O)c(O)c([N+](=O)[O-])c2)cc2ccccc12
inhibition [1]: 29% | inhibition [2]: 15%

O=C(Cc1ccccc1C(=O)O)c1cc(O)c(O)c([N+](=O)[O-])c1
inhibition [1]: 34% | inhibition [2]: 39%

COc1ccc(CC(=O)c2cc(OC(C)=O)c(OC(C)=O)c([N+](=O)[O-])c2)cc1
inhibition [1]: 25% | inhibition [2]: 72%

Cc1ccc(CC(=O)c2cc(O)c(O)c([N+](=O)[O-])c2)cc1
inhibition [1]: 23% | inhibition [2]: 83%

CC(=O)Oc1cc(C(=O)C(C)(C)c2ccccc2)cc([N+](=O)[O-])c1OC(C)=O
inhibition [1]: 23% | inhibition [2]: 19%

CC(=O)Oc1cc(C(=O)C(Cc2ccccc2)c2ccccc2)cc([N+](=O)[O-])c1OC(C)=O (stereo not given)
inhibition [1]: 44% | inhibition [2]: 63%

CC(=O)Oc1cc(C(=O)Cc2ccc([N+](=O)[O-])cc2)cc([N+](=O)[O-])c1OC(C)=O
inhibition [1]: 0% | inhibition [2]: 49%

CC(=O)Oc1cc(C(=O)Cc2ccccc2[N+](=O)[O-])cc([N+](=O)[O-])c1OC(C)=O
inhibition [1]: 20% | inhibition [2]: 28%

O=C(Cc1ccc2ccccc2c1)c1cc(O)c(O)c([N+](=O)[O-])c1
inhibition [1]: 17% | inhibition [2]: 83%

Cc1ccccc1CC(=O)c1cc(O)c(O)c([N+](=O)[O-])c1
inhibition [1]: 33% | inhibition [2]: 74%

O=[N+]([O-])c1cc(/C(Cc2ccccc2)=N\O)cc(O)c1O
inhibition [1]: 13% | inhibition [2]: 48%

O=[N+]([O-])c1cc(CCc2ccccc2)cc(O)c1O
inhibition [1]: 10% | inhibition [2]: 0%

O=C(Cc1ccc(-c2ccccc2)cc1)c1cc(O)c(O)c([N+](=O)[O-])c1
inhibition [1]: 28% | inhibition [2]: 78%

O=C(CC1CCCCC1)c1cc(O)c(O)c([N+](=O)[O-])c1
inhibition [1]: 39% | inhibition [2]: 72%

CC(=O)Oc1cc(C(=O)C2(c3ccccc3)CCCCC2)cc([N+](=O)[O-])c1OC(C)=O
inhibition [1]: 19% | inhibition [2]: 14%
